Entries after “also recorded” stand apart in the source; their conditions may differ. Read-outs that look alike come from different tables or passages of the source.
What was measured:
[1] = tested on: T98G glioma cell line; experiment: ZNF238 and ZNF238-target mRNA expression by quantitative PCR in T98G cells; assay type: cell-based, human
Experimental: FIG. 12A, Graphical representation of the promoter of ZNF238. The region between −1800 and −3400 contains stretches of CpG islands. FIG. 12B, 5-Azacytidine induces expression of ZNF238. T98G cells were treated with 5-Azacytidine at the indicated concentrations for 3 days. Expression of ZNF238 was analyzed by quantitative PCR. […] HPRT was used as control for normalization.
Computational and expression predictions converged towards the identification of a highly vulnerable structure of the regulatory region controlling ZNF238 expression. The ZNF238 promoter/enhancer is unusually rich in evolutionarily conserved CpG islands (FIG. 12A), which are targeted by DNA methyltransferases leading to gene expression silencing. Methylation of regulatory DNA regions is a common mechanism in human cancer and is implicated in the constitutive silencing of tumor suppressor genes in malignant glioma (109; herein incorporated by reference in its entirety). Thus, whether promoter methylation induces silencing of ZNF238 was considered. Pharmacological inhibition of methylation with an inhibitor of DNA methyltransferases (5-Azacytidine) elevated the expression of ZNF238 mRNA in the T98G glioma cell line (FIG. 12B) and repressed the expression of SerpineH1 and CH3IRL1 (FIG. 12C), two mesenchymal genes predicted as ZNF238 targets by ARACNe (FIG. 1).

[2] = tested on: C/EBPbeta-luciferase reporter; experiment: C/EBPbeta-luciferase reporter screen in SNB19 glioma cells; assay type: cell-based, human
Experimental: SNB19 human glioma cells were stably transfected with the C/EBPbeta-driven luciferase plasmid (FIG. 36). Several clones were isolated and propagated. […] Cells were transfected with control siRNAs or siRNA oligonucleotides targeting C/EBPbeta (for example, SEQ ID NO: 228 or SEQ ID NO: 229). The control siRNA sequence is the Dharmacon ON-TARGETpIus Non-targeting Pool (Cat#: D-001810-10-20). Luciferase activity was measured on a luminometer and the results are shown after normalization with renilla.
A multimerized C/EBPbeta-luciferase reporter was stably introduced in SNB19 and a screening of ˜9,800 compounds was done to identify positive candidates.

[3] = tested on: SNB19 human glioma cell line; experiment: Gene expression profiling and GSEA after shRNA silencing of MR-TFs in SNB19; assay type: cell-based; settings: shRNA knock-down in human glioma cells; for Enrichment of ATF2 regulon on TF-knock-down gene expression profile by GSEA, nES: Control TF regulon ATF2 (negative control), size 386; for Enrichment of SOX15 regulon on TF-knock-down gene expression profile by GSEA, nES: Control TF regulon SOX15 (negative control), size 213; for Enrichment of ZNF277 regulon on TF-knock-down gene expression profile by GSEA, nES: Control TF regulon ZNF277 (negative control), size 238; for Enrichment of ZNF500 regulon on TF-knock-down gene expression profile by GSEA, nES: Control TF regulon ZNF500 (negative control), size 469; for Enrichment of the MGES on genes downregulated after MR-TF knock-down, nES: MGES Enrich.; for Enrichment of C/EBPβ regulon on TF-knock-down gene expression profile by GSEA, nES: Module TF regulon C/EBPβ, size 209; for Enrichment of FosL2 regulon on TF-knock-down gene expression profile by GSEA, nES: Module TF regulon FosL2, size 403; for Enrichment of Runx1 regulon on TF-knock-down gene expression profile by GSEA, nES: Module TF regulon Runx1, size 490; for Enrichment of Stat3 regulon on TF-knock-down gene expression profile by GSEA, nES: Module TF regulon Stat3, size 366; for Enrichment of bHLH-B2 regulon on TF-knock-down gene expression profile by GSEA, nES: Module TF regulon bHLH-B2, size 226
Description: To test whether specific gene signatures were globally differentially regulated, we used the Gene Set Enrichment analysis method (A31; herein incorporated by reference in its entirety). In this method, the Kolmogorov-Smirnoff test is used to determine whether two gene lists are statistically correlated. In this case, one list includes genes on the microarray expression profile dataset, ranked by their differential expression statistics across two conditions (e.g. ectopically expressed Stat3C/C/EBPβ vs. control), from most over- to most underexpressed. The other list contains non-ranked genes in a specific signature (e.g. mesenchymal). This is very useful to detect, for instance, situations where signature genes can be differentially expressed as a whole, even though the fold-change can be small for each gene in isolation. In this case, a gene-by-gene test, such as a T-test, cannot reveal statistical significance. The algorithm was set to implement weighted scoring scheme and the enrichment score significance was assessed by 1000 permutation tests.
Next, lentivirus-mediated shRNA silencing of the five TFs (C/EBPβ, Stat3, bHLH-B2, FosL2, and Runx1) was performed in the SNB19 human glioma cell line, followed by gene expression profiling using HT-12v3 Illumina BeadArrays in triplicate.
RNA amplification for Array analysis was performed with Illumina TotalPrep RNA Amplification Kit (Ambion). 1.5 μg of amplified RNA was hybridized on Illumina HumanHT-12v3 or MouseWG-6 expression BeadChip according to the manufacturer's instructions. Hybridization data was obtained with an iScan BeadArray scanner (Illumina) and pre-processed by variance stabilization and robust spline normalization implemented in the lumi package under the R-system (Du, P., Kibbe, W. A. and Lin, S. M., (2008) ‘lumi: a pipeline for processing Illumina microarray’, Bioinformatics 24(13):1547-1548; herein incorporated by reference in its entirety).

[4] = tested on: SNB19 glioma cells; experiment: Intracranial xenograft of shRNA-transduced SNB19 glioma cells in immunocompromised mice; assay type: in vivo, mouse; settings: SNB19 xenografted into striatum, 120 days from injection
Experimental: Next, it was considred whether loss of C/EBPβ and Stat3 in glioma cells reduced tumor aggressiveness in vitro and in vivo. […] Then, the impact of C/EBPβ and Stat3 knockdown for brain tumorigenesis in vivo was determined. SNB19 cells transduced with non-targeting control shRNA lentivirus or shRNA targeting C/EBPβ and/or Stat3 were xenografted into the striatum of immunocompromised mice. […] However, only one of four mice from the shC/EBPβ and one of five mice from the shC/EBPβ+shStat3 groups developed tumors after 120 days from the injection (FIG. 22B). […] Conversely, the single tumor in the shC/EBPβ+shStat3 group grew well circumscribed and was less angiogenic.
Intracranial injection of SNB19 glioma cell line and GBM-derived BTICs was performed in 6-8 weeks NOD/SCID mice (Charles River laboratories) in accordance with guidelines of the International Agency for Reserch on Cancer's Animal Care and Use Committee. Briefly, 48 h after lentiviral infection, 2×10^5 SNB19 or 3×10^5 BTICs were injected 2 mm lateral and 0.5 mm anterior to the bregma, 3 mm below the skull. Mice were monitored daily and sacrificed when neurological symptoms appeared. Kaplan-Meier survival curve of the mice injected with SNB19 glioma cells was generated using the DNA Statview software package (AbacusConcepts, Berkeley Calif.).

[5] = tested on: GBM-BTICs and SNB19; experiment: qRT-PCR of C/EBPβ and Stat3 mRNA after lentivirus-mediated shRNA silencing; assay type: cell-based, human
Experimental: For loss-of-function experiments, lentivirus-mediated shRNA silencing of C/EBPβ and Stat3 in the human glioma cell line SNB19 and in early-passage cultures of tumor cells derived from primary GBM was performed. The latter were grown in serum-free conditions, in the presence of the growth factors bFGF and EGF. These culture conditions preserve the tumor stem cell-like features of GBM-derived cells and propel the formation of GBM-like tumors after intracranial transplantation in immunodeficient mice {Lee, 2006; herein incorporated by reference in its entirety} (GBM-derived brain tumor initiating cells, GBM-BTICs, see FIG. 22 for the analysis of their tumor-initiating capacity). At least three replicates for each condition were produced and a global dataset of 89 individual samples was generated, including 55 knockdown experiments in human glioma cells and 34 ectopic expression experiments in mouse NSCs. Gene expression profiles of human samples were produced with the HT-12v3 Illumina BeadArrays (including 24,385 human genes), while murine samples were profiled on mouse-6V2 Illumina BeadArrays (including 20,311 mouse genes). 14,857 murine genes were mapped to human orthologs, using the homologene database (http://www.ncbi.nlm.nih.gov/homologene; herein incorporated by reference in its entirety). Of the 149 genes in the MGES, 118 could be mapped to murine genes represented on the mouse-6V2 array.
Reciprocal changes followed ectopic expression of the two TFs in C17.2 and NSC cells (Table 10) qRT-PCR values and microarray-based measurements were highly correlated for Stat3 but not for C/EBPβ mRNA (FIG. 24). Moreover, the Stat3C and C/EBPβ constructs used in the ectopic expression experiments in mouse NSCs lack the 3′ UTR sequence targeted by the Illumina probes. Thus, the qRT-PCR values for C/EBPβ and Stat3 were used, rather than the microarray measurements, as more accurate read-outs for their mRNA expression across the 89 samples.
RNA was prepared with RiboPure kit (Ambion), and used for first strand cDNA synthesis using random primers and SuperScriptll Reverse Transcriptase (Invitrogen). QRT-PCR was performed using Power SYBR Green PCR Master Mix (Applied Biosystems). QRT-PCR results were analyzed by the ΔΔCT method (Livak & Schmittgen, Methods 25:402, 2001; herein incorporated by reference in its entirety) using GAPDH or 18S as housekeeping genes.
Lentiviral expression vectors carrying shRNAs were purchased from Sigma. To generate lentiviral particles, each shRNA expression plasmid was co-transfected with pCMV-dR8.91 and pCMV-MD2.G vectors into human embryonic kidney 293T cells using Fugene 6 (Roche). Lentiviral infections were performed as described {Zhao, 2008; herein incorporated by reference in its entirety}.

[6] = tested on: phospho-STAT3; experiment: Inhibition of active STAT3 (phospho-STAT3); assay type: cell-based, human

Row | Compound | Enrichment of ATF2 regulon on TF-knock-down gene expression profile by GSEA, nES [3] | Enrichment of SOX15 regulon on TF-knock-down gene expression profile by GSEA, nES [3] | Enrichment of ZNF277 regulon on TF-knock-down gene expression profile by GSEA, nES [3] | Enrichment of ZNF500 regulon on TF-knock-down gene expression profile by GSEA, nES [3] | Enrichment of the MGES on genes downregulated after MR-TF knock-down, nES [3] | Enrichment of C/EBPβ regulon on TF-knock-down gene expression profile by GSEA, nES [3] | Enrichment of FosL2 regulon on TF-knock-down gene expression profile by GSEA, nES [3] | Enrichment of Runx1 regulon on TF-knock-down gene expression profile by GSEA, nES [3] | Enrichment of Stat3 regulon on TF-knock-down gene expression profile by GSEA, nES [3] | Enrichment of bHLH-B2 regulon on TF-knock-down gene expression profile by GSEA, nES [3] | mice that developed tumors [4] | C/EBPβ mRNA level relative to non-target shRNA transduced cells (fold ratio, median ± MAD) [5] | Stat3 mRNA level relative to non-target shRNA transduced cells (fold ratio, median ± MAD) [5] | also measured
1 | Nc1ncn([C@@H]2O[C@H](CO)[C@@H](O)[C@H]2O)c(=O)n1 [5-Azacytidine] | – | – | – | – | – | – | – | – | – | – | – | – | – | expression of CH3IRL1 [1]: repressed; expression of SerpineH1 [1]: repressed; expression of ZNF238 mRNA ([1]; 3 days, quantitative PCR): induces; also recorded: elevated; Expression of selected ZNF238 targets ([1]; HPRT normalization (FIG. 12C)): down-regulated
2 | O=c1[nH]cc(F)c(=O)[nH]1 [5-fluorouracil] | – | – | – | – | – | – | – | – | – | – | – | – | – | inhibition of C/EBPb activity, C/EBPb gene reporter assay ([2]; reporter activity at 48 hr, various dosages (FIG. 38A, 39A)): inhibition
3 | shC/EBPβ: lentiviral shRNA specific for C/EBPβ purchased from Sigma (TRCN0000007442, SEQ ID NO: 225) (CCGGCGACTTCCTCTCCGACCTCTTCTCGAGAAGAGGTCGGAGAGGAAGTCGTTTTT) | 1.54 | 0.28 | −0.79 | −0.24 | 3.23 | 1.91 | 3.83 | 0.55 | 2.49 | 1.74 | one of four | 0.26 ± 0.119 | 1.13 ± 0.43 | C/EBPβ mRNA level relative to non-target shRNA transduced cells (fold ratio, median ± MAD) ([5]; listed as C/EBPβ shRNA): 0.26
4 | shStat3: lentiviral shRNA specific for Stat3 purchased from Sigma (TRCN0000020843, SEQ ID NO: 224) (CCGGGCAAAGAATCACATGCCACTTCTCGAGAAGTGGCATGTGATTCTTTGCTTTTT) | −0.24 | −2.81 | −0.55 | 0.20 | 3.59 | 2.43 | 4.98 | 2.41 | 1.78 | 0.59 | all mice | 0.87 ± 0.111 | 0.205 ± 0.052 | Stat3 mRNA level relative to non-target shRNA transduced cells (fold ratio, median ± MAD) ([5]; listed as Stat3-shRNA): 0.205
5 | COc1cc([C@@H]2c3cc4c(cc3[C@@H](O[C@@H]3O[C@@H]5CO[C@@H](C)O[C@H]5[C@H](O)[C@H]3O)[C@H]3COC(=O)[C@H]23)OCO4)cc(OC)c1O [etoposide] | – | – | – | – | – | – | – | – | – | – | – | – | – | inhibition of CCAAT/enhancer-binding protein (CEBP) luciferase reporter ([2]; pilot screen, microsource library (2000 compounds), SNB19): inhibit; inhibition of the active form of STAT3 (phospho-STAT3) [6]: inhibit

— patent US20130156795A1, “METHODS FOR INHIBITION OF CELL PROLIFERATION, SYNERGISTIC TRANSCRIPTION MODULES AND USES THEREOF” (priority 2009, published 2013)
